Test system: murine peripheral blood mononuclear cells (PBMC)
Experiment: In vitro cytokine induction in murine PBMC (multiplex assay)
Details: 2 to 10 μM, 24 hours, supernatant, dose-dependent
Procedure: 50 μL of cell culture medium was collected and analyzed with a 36plex Procarta multiplex kit (ebioscience EPX360-26092-901, eBioscience), which measured the levels of 15 cytokine analytes, following the manufacturer's instruction.

Row | Structure (SMILES) | Cytokine induction in murine PBMC
1 | CCC(O)[C@@H]1C[C@@H](O)[C@H](n2c(=O)sc3c(=O)[nH]c(N)nc32)O1 (single isomer, unassigned) [Example 1-A] | high levels of IFNα, IP10, TNFα, and IL-6 were found induced

Test system: human hepatocytes
Experiment: Metabolic conversion of prodrugs to active forms in human hepatocytes
Format: in vitro ADME
Details: active metabolites Example 1-A, Example 14-A and penciclovir, respectively
From the text: A study was undertaken to evaluate the metabolic conversion of prodrugs, formula (II) or formula (IIa), to compounds of formula (I) or formula (Ia) of the present invention. The produgs, formula (II) or formula (IIa), can be metabolized to the active compound of formula (I) or formula (Ia) and other compounds of the invention in the body if they are served as prodrugs. Hepatocytes are often used to assess the degree of metabolic conversion of prodrugs in the body of animal or human. A study was undertaken to evaluate the metabolic conversion of prodrugs, Example 2-A, Example 3-A, Example 4-A, Example 16-A and Example 17-A, to the corresponding active forms, Example 1-A and Example 14-A, in the presence of human hepatocytes. The formation of active forms, Example 1-A and Example 14-A, were monitored in the study. For comparison, the metabolic conversion of famciclovir to penciclovir was also assessed. Cryopreserved hepatocytes plating medium (Cat. #: PY-HMD-01) was purchased from RILD Research Institute for Liver Diseases (Shanghai) Co. Ltd. Cryopreserved human hepatocyte (Cat. #: X008005, Lot #:VRR) was purchased from In Vitro Technologies (Baltimore, Md.). The stock hepatocyte suspension was prepared from cryopreserved hepatocytes in plating medium at the concentration of 1.8×10^6 cells/mL. […] Reaction suspensions were prepared in 24-well cell culture plate by mixing 200 μL of hepatocytes suspension (Cyno or human) and 200 μL of working solution. The final incubation contained 0.9×10^6 cells/mL and 50 μM compound. The above mixtures were incubated at 37° C. in a humidified 5% CO2 atmosphere, with a 150 rpm shaking. After 180 min of incubation, 200 μL of the incubation mixture was transferred to 1.5 mL tube and quenched with 400 μL stop solution (ice-cold acetonitrile with 0.2 μM Tolbutamide as internal standard). The samples were centrifuged at 12000 rpm for 10 minutes and the resultant supernatants were subjected to LC-MS/MS analysis. The calibration curves were prepared in the following way. To a 200 μL of cell suspension (cell density of 1.8 million cells/mL), 198 μL of hepatocyte plating medium and 2 μL of the appropriate concentration of the compound in DMSO were added. Samples were mixed thoroughly and 200 μL of the mixture was transferred to 400 uL of the stop solution (see above). […] The compounds were quantified on an API5500 […] instrument in the ESI-Positive MRM mode.

Row | Structure (SMILES) | Metabolic conversion of prodrug to active metabolite
2 | CCC(O)[C@@H]1C[C@@H](O)[C@H](n2c(=O)sc3cnc(N)nc32)O1 (single isomer, unassigned) [Example 2-A] | metabolized to yield the corresponding active metabolites
3 | CCC(O)[C@@H]1C[C@@H](OC(C)=O)[C@H](n2c(=O)sc3cnc(N)nc32)O1 (single isomer, unassigned) [Example 3-A] | metabolized to yield the corresponding active metabolites
4 | CCC(OC(C)=O)[C@@H]1C[C@@H](O)[C@H](n2c(=O)sc3cnc(N)nc32)O1 (single isomer, unassigned) [Example 4-A] | metabolized to yield the corresponding active metabolites
5 | CC(=O)OC(C1CC1)[C@@H]1C[C@@H](O)[C@H](n2c(=O)sc3cnc(N)nc32)O1 (single isomer, unassigned) [Example 16-A] | metabolized to yield the corresponding active metabolites
6 | Nc1ncc2sc(=O)n([C@@H]3O[C@H](C(O)C4CC4)C[C@H]3O)c2n1 (single isomer, unassigned) [Example 17-A] | metabolized to yield the corresponding active metabolites
7 | CC(=O)OCC(CCn1cnc2cnc(N)nc21)COC(C)=O [Famciclovir, famciclovir, reference compound] | metabolized to yield the corresponding active metabolites
